Measurements: PubChem BioAssay AID330 (DTP/NCI, 2004)
Several values for one entry are separate records, joined by “and”; a condition that tells them apart may be missing. Identical values can stand only once. Inconclusive results and toxic doses are left out. The calls were made as follows: active = survival T/C of 150% or more; inactive = T/C below 125% in these data. Square brackets hold non-standard residues; d marks the D form. Peptide text beside a SMILES is read from it. * marks the point of attachment. Cbz = O=C(OCc1ccccc1)*; Nva = CCC[CH](N)C(=O)O

Tested on: P388 leukemia ip, CD2F1 mice, survival T/C
Assay: NCI In Vivo Anticancer Drug Screen. Data for tumor model P388 Leukemia (intraperitoneal) in CD2F1 (CDF1) mice
Settings: endpoint: median survival time, higher = longer survival
Summary of the method: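 Mice carrying the transplanted tumor received test compound or vehicle. Survival was recorded in each group, and the value is the treated-group measurement divided by that of the vehicle-treated control group.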

[1] = dose: 100.0 mg/kg/injection, schedule: Q04DX002 (ip), vehicle: saline with Tween-80
[2] = dose: 200.0 mg/kg/injection, schedule: Q04DX002 (ip), vehicle: saline with Tween-80
[3] = dose: 400.0 mg/kg/injection, schedule: Q04DX002 (ip), vehicle: saline with Tween-80
[4] = dose: 100.0 mg/kg/injection, schedule: Q01DX001 (ip), vehicle: saline with Tween-80
[5] = dose: 200.0 mg/kg/injection, schedule: Q01DX001 (ip), vehicle: saline with Tween-80
[6] = dose: 400.0 mg/kg/injection, schedule: Q01DX001 (ip), vehicle: saline with Tween-80
[7] = dose: 50.0 mg/kg/injection, schedule: Q01DX005 (ip), vehicle: saline with Tween-80
[8] = dose: 100.0 mg/kg/injection, schedule: Q01DX005 (ip), vehicle: saline with Tween-80
[9] = dose: 200.0 mg/kg/injection, schedule: Q01DX005 (ip), vehicle: saline with Tween-80
[10] = dose: 3.13 mg/kg/injection, schedule: Q01DX009 (ip), vehicle: saline with Tween-80

Measured: T/C

C=C1CCN(c2ccc(N3CCC(=C)C3=O)cc2)C1=O
inactive: dose: 3.12 mg/kg/injection, schedule: Q01DX009 (ip), vehicle: saline + alcohol 88 % of control | dose: 6.25 mg/kg/injection, schedule: Q01DX009 (ip), vehicle: saline + alcohol 100 % of control | dose: 25.0 mg/kg/injection, schedule: Q01DX009 (ip), vehicle: saline + alcohol 88 % of control | dose: 50.0 mg/kg/injection, schedule: Q01DX009 (ip), vehicle: saline + alcohol 88 % of control

COc1ccc(C=Nc2c(N)[nH]c(=S)[nH]c2=O)cc1
inactive: [1] 100 % of control | [2] 106 % of control | [3] 107 % of control | dose: 600.0 mg/kg/injection, schedule: Q04DX002 (ip), vehicle: saline with Tween-80 106 % of control

COC(=O)C1CC(NO)CN1S(=O)(=O)c1ccc(C)cc1 (stereo unspecified)
inactive: [1] 99 % of control | [2] 95 % of control | [3] 93 % of control

CN(C)CCNC(=O)c1noc2c1CSc1ccccc1-2
inactive: [4] 101 % of control | [5] 101 % of control | [6] 100 % of control

CCCCCN(CCCCC)CC(C)(O)CNc1cc(OC)cc2cccnc12 (stereo unspecified)
inactive: dose: 50.0 mg/kg/injection, schedule: Q01DX005 (ip), vehicle: saline 95 % of control | dose: 100.0 mg/kg/injection, schedule: Q01DX005 (ip), vehicle: saline 87 % of control

CC1=CC(C)=NC(N)=NN1
inactive: dose: 25.0 mg/kg/injection, schedule: Q01DX009 (ip), vehicle: water 99 % of control | dose: 50.0 mg/kg/injection, schedule: Q01DX009 (ip), vehicle: water 108 % of control | dose: 100.0 mg/kg/injection, schedule: Q01DX009 (ip), vehicle: water 103 % of control | dose: 200.0 mg/kg/injection, schedule: Q01DX009 (ip), vehicle: water 119 % of control

CCCC(NC(=O)OCc1ccccc1)C(=O)NC(CC(C)C)C(=O)O (stereo unspecified) (Cbz-[Nva]-Leu-OH; configuration not given here)
inactive: dose: 50.0 mg/kg/injection, schedule: Q01DX005 (ip), vehicle: Klucel (hydroxypropylcellulose) (HPC) 112 % of control | dose: 100.0 mg/kg/injection, schedule: Q01DX005 (ip), vehicle: Klucel (hydroxypropylcellulose) (HPC) 100 % of control | dose: 200.0 mg/kg/injection, schedule: Q01DX005 (ip), vehicle: Klucel (hydroxypropylcellulose) (HPC) 106 % of control

CN(C)CCCNc1cc(/C=C/c2ccc([N+](=O)[O-])cc2)nc2ccccc12
inactive: [7] 106 % of control | [8] 106 % of control | [9] 106 % of control

COc1ccc(S(=O)(=O)N/N=C\c2cc(I)cc(I)c2O)cc1
inactive: [7] 101 % of control | [8] 102 % of control | [9] 100 % of control

Cc1ccc(S(=O)(=O)OCC(C)(C)COS(=O)(=O)c2ccc(C)cc2)cc1
inactive: [10] 103 % of control | dose: 6.25 mg/kg/injection, schedule: Q01DX009 (ip), vehicle: saline with Tween-80 103 % of control | dose: 12.5 mg/kg/injection, schedule: Q01DX009 (ip), vehicle: saline with Tween-80 105 % of control | dose: 25.0 mg/kg/injection, schedule: Q01DX009 (ip), vehicle: saline with Tween-80 106 % of control

C[n+]1c(/C=C\c2ccc(Cl)cc2)ccc2ccccc21
inactive: dose: 1.56 mg/kg/injection, schedule: Q01DX009 (ip), vehicle: saline with Tween-80 100 % of control | [10] 113 % of control

O=C(Nc1ccc(S(=O)(=O)F)cc1)/C(=C/c1cccc([N+](=O)[O-])c1)c1ccccc1
inactive: dose: 60.0 mg/kg/injection, schedule: Q01DX005 (ip), vehicle: Klucel (hydroxypropylcellulose) (HPC) 102 % of control | dose: 120.0 mg/kg/injection, schedule: Q01DX005 (ip), vehicle: Klucel (hydroxypropylcellulose) (HPC) 98 % of control | dose: 240.0 mg/kg/injection, schedule: Q01DX005 (ip), vehicle: Klucel (hydroxypropylcellulose) (HPC) 94 % of control

Cc1ccc(NC(=O)NCCCCCCNC(=O)Nc2ccc(C)cc2)cc1
inactive: dose: 60.0 mg/kg/injection, schedule: Q01DX005 (ip), vehicle: saline with Tween-80 96 % of control | dose: 120.0 mg/kg/injection, schedule: Q01DX005 (ip), vehicle: saline with Tween-80 94 % of control | dose: 240.0 mg/kg/injection, schedule: Q01DX005 (ip), vehicle: saline with Tween-80 106 % of control

CCN(CC)CCCC(C)NCC#CCNC(C)CCCN(CC)CC (stereo unspecified)
inactive: dose: 1.56 mg/kg/injection, schedule: Q01DX009 (ip), vehicle: water 105 % of control | dose: 3.13 mg/kg/injection, schedule: Q01DX009 (ip), vehicle: water 108 % of control | dose: 6.25 mg/kg/injection, schedule: Q01DX009 (ip), vehicle: water 104 % of control | dose: 12.5 mg/kg/injection, schedule: Q01DX009 (ip), vehicle: water 105 % of control

Nn1cnc2nc[nH]c2c1=O
inactive: [4] 101 % of control | [5] 104 % of control | [6] 95 % of control

C[C@]12CC[C@H]3[C@@H](CCC4=CC(=O)CC[C@@]43C)[C@@H]1CC[C@@H]2OC(=O)Cc1ccc(N(CCCl)CCCl)cc1
inactive: dose: 100.0 mg/kg/injection, schedule: Q04DX003 (ip), vehicle: saline with Tween-80 112 % of control | dose: 264.0 mg/kg/injection, schedule: Q04DX003 (ip), vehicle: saline with Tween-80 109 % of control

COc1cc(-c2ccc(N=Nc3ccc4c(S(=O)(=O)O)cc(S(=O)(=O)O)c(N)c4c3O)c(OC)c2)ccc1N=Nc1ccc2c(S(=O)(=O)O)cc(S(=O)(=O)O)c(N)c2c1O
inactive: dose: 12.5 mg/kg/injection, schedule: Q01DX009 (ip), vehicle: saline 94 % of control | dose: 25.0 mg/kg/injection, schedule: Q01DX009 (ip), vehicle: saline 92 % of control

Cc1ncc(CO)n1Cc1ccc(Cl)cc1
inactive: dose: 50.0 mg/kg/injection, schedule: Q01DX009 (ip), vehicle: Klucel (hydroxypropylcellulose) (HPC) 104 % of control | dose: 100.0 mg/kg/injection, schedule: Q01DX009 (ip), vehicle: Klucel (hydroxypropylcellulose) (HPC) 99 % of control | dose: 200.0 mg/kg/injection, schedule: Q01DX009 (ip), vehicle: Klucel (hydroxypropylcellulose) (HPC) 94 % of control

O=C1CS(=O)(=O)C(c2cccc(Cl)c2)N1N1C(=O)CS(=O)(=O)C1c1cccc(Cl)c1 (stereo unspecified)
inactive: [7] 92 % of control | [8] 100 % of control | [9] 92 % of control

CC(=O)Oc1cc2c(cc1OC(C)=O)C(=O)CCC=C2
inactive: dose: 100.0 mg/kg/injection, schedule: Q04DX003 (ip), vehicle: saline sonified 110 % of control | dose: 200.0 mg/kg/injection, schedule: Q04DX003 (ip), vehicle: saline sonified 100 % of control | dose: 400.0 mg/kg/injection, schedule: Q04DX003 (ip), vehicle: saline sonified 100 % of control

COC(=O)/C=C\C=[N+](/[O-])C(C)(C)C
inactive: dose: 12.5 mg/kg/injection, schedule: Q01DX001 (ip), vehicle: Klucel (hydroxypropylcellulose) (HPC) 114 % of control | dose: 25.0 mg/kg/injection, schedule: Q01DX001 (ip), vehicle: Klucel (hydroxypropylcellulose) (HPC) 113 % of control | dose: 50.0 mg/kg/injection, schedule: Q01DX001 (ip), vehicle: Klucel (hydroxypropylcellulose) (HPC) 113 % of control

c1ccc2c(c1)Sc1ccccc1N2CCCNC1=NCCO1
inactive: dose: 12.5 mg/kg/injection, schedule: Q04DX003 (ip), vehicle: saline with Tween-80 94 % of control | dose: 25.0 mg/kg/injection, schedule: Q04DX003 (ip), vehicle: saline with Tween-80 96 % of control | dose: 50.0 mg/kg/injection, schedule: Q04DX003 (ip), vehicle: saline with Tween-80 87 % of control | dose: 200.0 mg/kg/injection, schedule: Q04DX003 (ip), vehicle: saline with Tween-80 88 % of control | dose: 400.0 mg/kg/injection, schedule: Q04DX003 (ip), vehicle: saline with Tween-80 90 % of control

CN(N=O)C(=O)NCC1OC(OC2(CO)OC(CNC(=O)N(C)N=O)C(O)C2O)C(O)C(O)C1O (stereo unspecified)
inactive: dose: 50.0 mg/kg/injection, schedule: Q01DX009 (ip), vehicle: saline 103 % of control and 109 % of control and 120 % of control | dose: 100.0 mg/kg/injection, schedule: Q01DX009 (ip), vehicle: saline 112 % of control and 120 % of control | dose: 200.0 mg/kg/injection, schedule: Q01DX009 (ip), vehicle: saline 104 % of control

C=Cn1ccnc1C(O)(c1ccc(Cl)cc1)c1ccc(Cl)cc1
inactive: dose: 50.0 mg/kg/injection, schedule: Q01DX009 (ip), vehicle: saline with Tween-80 92 % of control and 94 % of control | dose: 100.0 mg/kg/injection, schedule: Q01DX009 (ip), vehicle: saline with Tween-80 100 % of control and 94 % of control | dose: 200.0 mg/kg/injection, schedule: Q01DX009 (ip), vehicle: saline with Tween-80 94 % of control | dose: 400.0 mg/kg/injection, schedule: Q01DX009 (ip), vehicle: saline with Tween-80 95 % of control and 98 % of control
